This is an account of results in US7119073B2, “Peptides and their use as inhibitors of hepatitis C virus ns3 protease” (Istituto Di Ricerche Di Biologia Molecolare P. Angeletti SpA, priority 2001, dated 2006).

pIC50: −log10 of the molar value.

T1 sequence (P26663 1027-1657): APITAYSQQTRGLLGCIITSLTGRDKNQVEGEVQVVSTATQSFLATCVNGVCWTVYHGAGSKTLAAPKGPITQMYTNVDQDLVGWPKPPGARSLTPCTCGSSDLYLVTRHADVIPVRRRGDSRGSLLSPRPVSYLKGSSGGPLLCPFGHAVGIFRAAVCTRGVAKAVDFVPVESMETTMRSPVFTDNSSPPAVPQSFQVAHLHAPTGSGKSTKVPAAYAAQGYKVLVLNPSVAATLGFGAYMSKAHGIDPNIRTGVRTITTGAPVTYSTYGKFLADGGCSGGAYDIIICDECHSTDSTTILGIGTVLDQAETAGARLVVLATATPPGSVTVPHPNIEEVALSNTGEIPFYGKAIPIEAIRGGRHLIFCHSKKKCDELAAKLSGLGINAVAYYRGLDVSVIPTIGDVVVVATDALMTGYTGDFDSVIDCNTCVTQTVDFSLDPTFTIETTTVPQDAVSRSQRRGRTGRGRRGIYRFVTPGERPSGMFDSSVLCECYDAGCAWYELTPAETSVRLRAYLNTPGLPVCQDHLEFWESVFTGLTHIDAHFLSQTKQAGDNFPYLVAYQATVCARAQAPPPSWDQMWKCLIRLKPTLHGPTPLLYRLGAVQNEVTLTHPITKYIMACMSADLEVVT
T1 sequence (P26663 1658-1711): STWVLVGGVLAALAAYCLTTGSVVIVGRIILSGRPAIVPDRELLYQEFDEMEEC

The first assay has as its target T1, full length NS3 protein noncovalently complexed with the full-length NS4A cofactor protein (NS3/NS4A complex) (Hepatitis C virus genotype 1b, UniProt P26663).
T1 construct: full length NS3 protein spanning residues 1027–1657 of the HCV polyprotein
Description: Full-length NS3-NS4A heterodimer protein assay (Assay A). Conditions: Table 1; full-length NS3/NS4A, NS5A-NS5B peptide substrate; read-out: Assay A. The class given is biochemical, hepatitis C virus (HCV). The procedure:
Full-Length NS3-NS4A Heterodimer Protein Assay (Assay A)
(Gallinari, P., Paolini, C., Brennan, D., Nardi, C., Steinkühler, C. and De Francesco, R. Modulation of hepatitis C virus NS3 protease and helicase activities through the interaction with NS4A. Biochemistry 38, 5620–5632, 1999)
In this assay the full length NS3 protein spanning residues 1027–1657 of the HCV polyprotein, noncovalently complexed with the full-length NS4A cofactor protein (residues 1658–1711) was used. Assays were performed in 60 μl of a buffer containing 50 mM Hepes pH 7.5, 0.15 M NaCl, 0.1% (v/v) Triton X-100, 15% (v/v) glycerol, 10 mM DTT, 2 nM NS3/NS4A complex. To this assay mix 10 μM (final concentration) of a peptide substrate corresponding to the NS5AB cleavage site and having the sequence of the NS5A-NS5B peptide, were added. Incubation times at 23° C. were adjusted to obtain <10% conversion. Reactions were stopped by the addition of 40 μl of 1% TFA. Cleavage was determined by HPLC using a Merck-Hitachi chromatograph equipped with an autosampler. 80 μl samples were injected on a Lichrospher C18 reversed phase cartridge column (4×74 mm, 5 μm, Merck) and fragments were separated using a 10–40% acetonitrile gradient at 5%/min using a flow rate of 2.5 ml/min. Peak detection was done by monitoring both the absorbance at 220 nm and tryptophan fluorescence (λex=280 nm, λem=350 nm). Cleavage products were quantitated by integration of chromatograms with respect to appropriate standards. Kinetic parameters were calculated from nonlinear least-squares fit of initial rates as a function of substrate concentration with the help of a Kaleidagraph software, assuming Michaelis-Menten kinetics.
Ki values of peptide inhibitors were calculated from substrate titration experiments performed in the presence of increasing amounts of inhibitor. Experimental data sets were simultaneously fitted to eg.1 using a multicurve fit macro with the help of a Sigmaplot software: V=(VmaxS)/(Km([…])+S); (eq.1) Alternatively, Ki values were derived from IC50 values, calculated using a four-parameter logistic function, according to eq.2: IC50=(1+S/Km)Ki (eq.2)
Regarding `CC(C)COC(=O)NC(C(=O)NC(CC(C)C)C(=O)NC(CC(F)F)C(=O)NCCc1ccccc1CCC(=O)O)C(C)C` (stereo not drawn) [Compound 125], the pIC50 is > 4.00.

The assay is the same for the next values; noted with them: Table 5; full-length NS3/NS4A; read-out: AssayA.
For `CC(C)COC(=O)N[C@H](C(=O)N1C[C@H]([S+]([O-])C2CCCCC2)C[C@H]1C(=O)N[C@@H](CC(F)F)C(=O)NCCc1c(F)cc(C(=O)O)cc1F)C(C)C` (mixture of isomers) [Compound 552], the pIC50 was > 6.00.

In the case of `CC(C)[C@H](NC(=O)OCC1CCCC1)C(=O)N1C[C@H](C2CCCCC2)C[C@H]1C(=O)N[C@@H](CC(F)F)C(=O)NCCc1c(F)cc(C(=O)O)cc1F` [Compound 542], the pIC50 was > 5.00.

Regarding `CC(C)COC(=O)N[C@@H](CCC(=O)O)C(=O)N1C[C@H](c2ccccc2)C[C@H]1C(=O)N[C@@H](CC(F)F)C(=O)NCCc1c[nH]c2ccccc12` [Compound 575], the pIC50 was > 4.00.

For the compound `CC(C)COC(=O)N[C@H](C(=O)N1C[C@H](c2ccccc2)C[C@H]1C(=O)N[C@@H](CC(F)F)C(=O)NCCc1ccc(-c2nn[nH]n2)cc1)C(C)C` [Compound 518], the pIC50 is > 5.00.

For `CC(C)COC(=O)N[C@H](C(=O)N1C[C@H](C2CCCCC2)C[C@H]1C(=O)N[C@@H](CC(F)F)C(=O)NCCc1ccc(C(=O)O)cc1Cl)C(C)C` [Compound 532], the pIC50 was > 6.00.

Consider `CC(C)COC(=O)N[C@@H](CCC(=O)O)C(=O)N1C[C@H](c2ccccc2)C[C@H]1C(=O)N[C@@H](CC(F)F)C(=O)NCCc1ccccc1-c1ccccc1` [Compound 510], for which the pIC50 is > 5.00.

Regarding `CC(C)COC(=O)N[C@H](C(=O)N1C[C@H](C2CCCCC2)C[C@H]1C(=O)N[C@@H](CC(F)F)C(=O)NCCc1c(F)cc(C(=O)NS(C)(=O)=O)cc1F)C(C)C` [Compound 557], the pIC50 was > 6.00.

On to `CC(C)COC(=O)N[C@H](C(=O)N1C[C@H](c2ccccc2)C[C@H]1C(=O)N[C@@H](CC(F)F)C(=O)NCCc1cn(CCC(=O)O)c2ccccc12)C(C)C` [Compound 573], for which the pIC50 is > 4.00.

As for `CC[C@H](NC(=O)[C@@H]1C[C@@H](c2ccccc2)CN1C(=O)[C@@H](NC(=O)OCC(C)C)C(C)C)C(=O)NCCc1c(F)cc(C(=O)O)cc1F` [Compound 525], the pIC50 is > 4.00.

As for `CC(C)COC(=O)N[C@@H](CCC(=O)O)C(=O)N1C[C@H](c2ccccc2)C[C@H]1C(=O)N[C@@H](CC(F)F)C(=O)NCCC1=CCCCC1` [Compound 511], the pIC50 was > 4.00.

`COCCOCO[C@@H]1C[C@@H](C(=O)N[C@@H](CC(F)F)C(=O)NCCc2c(F)cc(C(=O)O)cc2F)N(C(=O)[C@@H](NC(=O)OCC(C)C)C(C)C)C1` [Compound 505]: the pIC50 was > 5.00.

In the case of `O=C(O)CC[C@H](NC(=O)[C@@H](O)c1ccccc1)C(=O)N1C[C@H](c2ccccc2)C[C@H]1C(=O)N[C@@H](CS)C(=O)NCCc1ccc(C(=O)O)cc1` [Compound 515], the pIC50 is > 4.00.

Regarding `CC[C@@H](C)[C@H](NC(=O)OCC(C)C)C(=O)N1C[C@H](C2CCCCC2)C[C@H]1C(=O)N[C@@H](CC(F)F)C(=O)NCCc1c(F)cc(C(=O)O)cc1F` [Compound 535], the pIC50 was > 6.00.

Turning to `CCC(Oc1ccc(F)c(CCNC(=O)[C@H](CC(F)F)NC(=O)[C@@H]2C[C@@H](C3CCCCC3)CN2C(=O)[C@@H](NC(=O)OCC(C)C)C(C)C)c1F)C(=O)O` (mixture of isomers) [Compound 568], the pIC50 is > 6.00.

As for `CCC[S+]([O-])[C@@H]1C[C@@H](C(=O)N[C@@H](CC(F)F)C(=O)NCCc2c(F)cc(C(=O)O)cc2F)N(C(=O)[C@@H](NC(=O)OCC(C)C)C(C)C)C1` (stereo partly drawn) [Compound 549], the pIC50 is > 5.00.

Turning to `CC[C@H](C)[C@H](NC(=O)OCC(C)C)C(=O)N1C[C@H](c2ccccc2)C[C@H]1C(=O)N[C@@H](CC(F)F)C(=O)NCCc1c(F)cc(C(=O)O)cc1F` [Compound 534], the pIC50 is > 5.00.

On to `CC(C)COC(=O)N[C@H](C(=O)N1C[C@H](c2ccccc2)C[C@H]1C(=O)N[C@@H](CC(F)F)C(=O)NCCc1cc(OC(C(=O)O)c2cccc(Cl)c2)ccc1Cl)C(C)C` (mixture of isomers) [Compound 571], for which the pIC50 was > 5.00.

With `CC(C)COC(=O)N[C@@H](CCC(=O)O)C(=O)N1C[C@H](c2ccccc2)C[C@H]1C(=O)N[C@@H](CS)C(=O)NCCc1ccccc1Br` [Compound 508], the pIC50 is > 4.00.

For the compound `CC(C)COC(=O)N[C@@H](CCC(=O)O)C(=O)N1C[C@H](O)C[C@H]1C(=O)N[C@@H](CS)C(=O)NCCc1ccccc1Cl` [Compound 503], the pIC50 was > 4.00.

Take `CC(C)COC(=O)N[C@H](C(=O)N1C[C@H](C2CCCCC2)C[C@H]1C(=O)N[C@@H](CC(F)F)C(=O)NCCc1ccc(C(=O)O)cc1F)C(C)C` [Compound 531]: the pIC50 is > 5.00.

As to `CC(C)COC(=O)N[C@H](C(=O)N1C[C@H](c2ccccc2)C[C@H]1C(=O)N[C@@H](CC(F)F)C(=O)NCCc1cccc(OC(C(=O)O)c2ccccc2)c1)C(C)C` (mixture of isomers) [Compound 569], the pIC50 was > 5.00.

Turning to `CC(C)COC(=O)N[C@H](C(=O)N1C[C@H](c2ccccc2)C[C@H]1C(=O)N[C@@H](CS)C(=O)NCCc1ccc(C(=O)O)cc1)C(C)C` [Compound 516], the pIC50 was > 5.00.

With `CC(C)COC(=O)N[C@H](C(=O)N1C[C@H](OCc2ccccc2)CC1C(=O)N[C@@H](CC(F)F)C(=O)NCCc1c(F)cc(C(=O)O)cc1F)C(C)C` (stereo partly drawn) [Compound 526], the pIC50 was > 6.00.

As to `CC(C)COC(=O)N[C@H](C(=O)N1C[C@H](C2CCCCC2)C[C@H]1C(=O)N[C@@H](CC(F)F)C(=O)NCCc1c(F)cc(C(=O)O)cc1F)C(C)C` [Compound 528], the pIC50 is > 6.00.

Consider `CC(C)COC(=O)N[C@H](C(=O)N1C[C@H](C2CCCCC2)C[C@H]1C(=O)N[C@@H](CC(F)F)C(=O)NCCc1c(F)cc(C(=O)O)cc1F)C1CCCC1` [Compound 538], for which the pIC50 was > 6.00.

For the compound `O=C(O)CC[C@H](NS(=O)(=O)c1cccc2ccccc12)C(=O)N1C[C@H](c2ccccc2)C[C@H]1C(=O)N[C@@H](CS)C(=O)NCCc1ccc(C(=O)O)cc1` [Compound 513], the pIC50 is > 4.00.

Turning to `CC(C)COC(=O)N[C@H](C(=O)N1C[C@H](c2ccccc2)C[C@H]1C(=O)N[C@@H](CC(F)F)C(=O)NCCc1[nH]c2ccccc2c1CCC(=O)O)C(C)C` [Compound 572], the pIC50 is > 4.00.

Turning to `CC(C)COC(=O)N[C@H](C(=O)N1C[C@H](C2CCCCC2)C[C@H]1C(=O)N[C@@H](CC(F)F)C(=O)NCCc1c(F)ccc(OCC(=O)O)c1F)C(C)C` [Compound 565], the pIC50 is > 6.00.

For `COc1ccc2c(O[C@@H]3C[C@@H](C(=O)N[C@@H](CC(F)F)C(=O)NCCc4c(F)cc(C(=O)O)cc4F)N(C(=O)[C@@H](NC(=O)OC(C)(C)C)C(C)(C)C)C3)cc(-c3ccccc3)nc2c1` [Compound 576], the pIC50 was > 6.00.

For the compound `CC(C)COC(=O)N[C@@H](CCC(=O)O)C(=O)N1C[C@H](c2ccccc2)CC1C(=O)N[C@@H](CS)C(=O)NCCc1ccccc1Cl` (stereo partly drawn) [Compound 506], the pIC50 is > 5.00.

Staying with this assay, now noted: full-length NS3-NS4A heterodimer protein assay; read-out: Assay A (IC50 class).
Consider `CC(C)C[C@H](NC(=O)C1(Cc2ccsc2C(=O)O)Cc2ccccc2N1)C(=O)N[C@@H](CC(F)F)C(=O)NCCc1cc2ccccc2[nH]1` (single isomer, unassigned) [Compound 707b], for which the pIC50 was > 4.00.

Consider `CC(C)C[C@H](NC(=O)C1(Cc2ccsc2C(=O)O)Cc2ccccc2N1)C(=O)N[C@@H](CC(F)F)C(=O)NCCc1cc2ccccc2[nH]1` (single isomer, unassigned) [Compound 707a], for which the pIC50 is > 4.00.
